Experimental data published in patent US20230082430A1 (C4 Therapeutics, Inc., priority 2019, published 2023).

The molecules below were run on NCIH929.1 cells (assay: Cell viability assay for Table 2 (CellTiter-Glo 2.0, ATP quantification, 96 hr)). Settings: 96 h, NCIH929.1 cell viability, 96 hr, top concentration 1 μM, 14 points half log titration; read-out: IC50.
Type: cell-based
Description: Cell Viability Assay for Table 2
CellTiter-Glo® 2.0 Assay was purchased from Promega (Madison, Wis., USA). NCIH929.1 cell line was purchased from ATCC (Manassas, Va., USA). Cell culture flasks and 384-well microplates were acquired from VWR (Radnor, Pa., USA).
`O=C1CCC(N2C(=O)c3cccc4c(Cc5ccc(CN6CCC7(CCCCC7)CC6)cc5)ccc2c34)C(=O)N1` (centres unmarked) [Compound 224, 3-(6-(4-((3-azaspiro[5.5]undecan-3-yl)methyl)benzyl)-2-oxobenzo[cd]indol-1(2H)-yl)piperidine-2,6-dione] was tested, and the IC50 was under 1 nM.
With `CC1(C(=O)N2CCC(n3cc(Nc4ccc5c6c(cccc46)C(=O)N5C4CCC(=O)NC4=O)cn3)CC2)CCC1` (centres unmarked) [Compound 249, 3-[6-[[1-[1-(1-methylcyclobutanecarbonyl)-4-piperidyl]pyrazol-4-yl]amino]-2-oxo-benzo[cd]indol-1-yl]piperidine-2,6-dione] the IC50 was under 100 nM.
Molecule `O=C1CCC(N2C(=O)c3cccc4c(Cc5cnn(C6CCN(C7CC8(CCC8)C7)CC6)c5)ccc2c34)C(=O)N1` (centres unmarked) [Compound 288, 3-[2-oxo-6-[[1-(1-spiro[3.3]heptan-2-yl-4-piperidyl)pyrazol-4-yl]methyl]benzo[cd]indol-1-yl]piperidine-2,6-dione] has an IC50 of under 1 nM.
In the case of `CC1(n2cc(Cc3ccc4c5c(cccc35)C(=O)N4C3CCC(=O)NC3=O)cn2)CCN(S(=O)(=O)C2(C)CCC2)CC1` (centres unmarked) [Compound 233, 3-[6-[[1-[4-methyl-1-(1-methylcyclobutyl)sulfonyl-4-piperidyl]pyrazol-4-yl]methyl]-2-oxo-benzo[cd]indol-1-yl]piperidine-2,6-dione], the IC50 is reported as under 1 nM.
For `O=C1CCC(N2C(=O)c3cccc4c(Cc5cnn(C6CCN(C(=O)c7ccncc7)CC6)c5)ccc2c34)C(=O)N1` (centres unmarked) [Compound 42, 3-(6-((1-(1-isonicotinoylpiperidin-4-yl)-1H-pyrazol-4-yl)methyl)-2-oxobenzo[cd]indol-1(2H)-yl)piperidine-2,6-dione], the IC50 was under 1 nM.
Molecule `CC1(C(=O)N2CCC(n3cc(Cc4ccc5c6c(cccc46)C(=O)N5C4CCC(=O)NC4=O)cn3)CC2)CCC1` (centres unmarked) [Compound 53, 3-(6-((1-(1-(1-methylcyclobutane-1-carbonyl)piperidin-4-yl)-1H-pyrazol-4-yl)methyl)-2-oxobenzo[cd]indol-1(2H)-yl)piperidine-2,6-dione] has an IC50 of under 1 nM.
`CC1(CN2CCC(n3cc(C4(c5ccc6c7c(cccc57)C(=O)N6C5CCC(=O)NC5=O)CC4)cn3)CC2)CCC1` (centres unmarked) [Compound 164, 3-[6-[1-[1-[1-[(1-methylcyclobutyl)methyl]-4-piperidyl]pyrazol-4-yl]cyclopropyl]-2-oxo-benzo[cd]indol-1-yl]piperidine-2,6-dione] gave an IC50 of under 100 nM.
`CC(C)(F)C(=O)N1CCC(C)(n2cc(Cc3ccc4c5c(cccc35)C(=O)N4C3CCC(=O)NC3=O)cn2)CC1` (centres unmarked) [Compound 96, 3-(6-((1-(1-(2-fluoro-2-methylpropanoyl)-4-methylpiperidin-4-yl)-1H-pyrazol-4-yl)methyl)-2-oxobenzo[cd]indol-1(2H)-yl)piperidine-2,6-dione] was tested, and the IC50 was under 1 nM.
`O=C1CCC(N2C(=O)c3cccc4c(Cc5ccc(CN6CCN(c7ccccc7F)CC67CC7)cc5)ccc2c34)C(=O)N1` (centres unmarked) [Compound 135, 3-[6-[[4-[[7-(2-fluorophenyl)-4,7-diazaspiro[2.5]octan-4-yl]methyl]phenyl]methyl]-2-oxo-benzo[cd]indol-1-yl]piperidine-2,6-dione] showed an IC50 of under 1 nM.
With `O=C1CC[C@H](N2C(=O)c3cccc4c(Cc5ccc(CN6CCC7(CCCO7)CC6)cc5)ccc2c34)C(=O)N1` (single isomer, unassigned) [Compound 216, 3-[6-[[4-(1-oxa-8-azaspiro[4.5]decan-8-ylmethyl)phenyl]methyl]-2-oxo-benzo[cd]indol-1-yl]piperidine-2,6-dione] the IC50 was under 1 nM.

Same assay, conditions: NCIH929.1 cell viability, 96 hr, top concentration 1 μM, 14 points half log titration; read-out: IC50
`O=C1CCC(N2C(=O)c3cccc4c(Cc5cnn(C6CCN(C7CCCC78CCC8)CC6)c5)ccc2c34)C(=O)N1` (single isomer, unassigned) [Compound 179, 3-[2-oxo-6-[[1-[1-[spiro[3.4]octan-8-yl]-4-piperidyl]pyrazol-4-yl]methyl]benzo[cd]indol-1-yl]piperidine-2,6-dione] was tested, and the IC50 was under 1 nM.
